Experimental data reported in US8735167B2, “Photoinduced signal amplification through externally sensitized photofragmentation in masked photosensitizers and photoamplified fluorescence turn-off system” (Colorado Seminary, which owns and operates The University …, priority 2007, dated 2014).

Columns and labels:
[1] = in non-polar solvents; cited from earlier work
[2] = Stern-Volmer fluorescence quenching of fluorene; assay type: physicochemical; parameters: unit not given here; conditions: fluorene 10^−5 M, in CH2Cl2
[3] = Stern-Volmer fluorescence quenching of p-terphenyl; assay type: physicochemical; parameters: unit not given here; conditions: p-terphenyl 10^−5 M
Excerpt: p-Oligophenylenes are known as durable fluorophores, and commonly used as a dye in dye lasers due to their resistance to photobleaching, a desirable characteristic for this application.

[4] = near diffusion controlled; previously shown; cited from earlier work
[5] = Pulse Field Gradient 19F NMR diffusion in N-n-octadecylurea organogels made in t-butyl benzene; assay type: physicochemical
Excerpt: The PFG NMR experiments allow for measuring diffusion coefficients of molecules of interest in complex mixtures, including gels. The successful photoamplification relies on adequate diffusion coefficients. The diffusion coefficients obtained for 4-trifluoromethylbenzophenone in gelated tert-butylbenzene and other solvents were within 10-15% of that in free (not gelated) solvents, which means that the gelation has no detrimental effect on photochemistry.

[6] = 19F PFG NMR diffusion in ionic liquid; assay type: physicochemical; conditions: in N-methyl-N,N,N-trioctylammonium bis-triflylamide
Excerpt: Another use of ionic liquids for photoamplified bioanalytical methods is for electrochemical detection. […] Unmasking of the sensitizer dramatically changes the redox properties of the system which can be utilized in electrochemical detection of photoamplification. Again, as mentioned above, ionic liquids can be gelated and used in a form of pixilated bioanalytical array. […] The ^19F PFG NMR measurements of diffusion of 4-(trifluoromethyl)benzophenone in N-methyl-N,N,N-trioctylammonium bis-triflylamide produced the translational diffusion coefficient of 9×10^−7 cm^2 s^−1, which is still adequate for bimolecular collisional quenching of triplet benzophenone, necessary for the photoamplification. N-Methyl-N,N,N-trioctylammonium bis-triflylamide is the most viscous ionic liquid which we tested in our experiments. Other, much less viscous ionic liquids, for example N,N-dimethyl-N,N-dihexylammonium bis-triflylamide, performed even better.

c1ccc2c(c1)Cc1ccccc1-2 [Fluorene]
fluorescence lifetime [1]: 10 ns

CC1(C(O)(c2ccccc2)c2ccccc2)SCCCS1 [MDT BP adduct, 2-methyl-1,3-dithiane benzophenone adduct]
Ksv, fluorescence quenching of fluorene [2]: 2300 | Ksv, fluorescence quenching of p-terphenyl ([3]; in CH2Cl2): 80 | Ksv, fluorescence quenching of p-terphenyl ([3]; in t-BuPh): 40 | rate of quenching of benzophenone triplet via electron transfer reduction [4]: 10^9 M^−1 s^−1

O=C(c1ccccc1)c1ccc(C(F)(F)F)cc1 [4-trifluoromethyl-benzophenone, 4-trifluoromethylbenzophenone]
Diffusion Coefficient ([5]; 0 % N-n-Octadecylurea, t-butyl benzene): 6.50 × 10^−6 cm^2 s^−1 | Diffusion Coefficient ([5]; 2 % N-n-Octadecylurea, t-butyl benzene organogel): 5.32 × 10^−6 cm^2 s^−1 | Diffusion Coefficient ([5]; 4 % N-n-Octadecylurea, t-butyl benzene organogel): 5.60 × 10^−6 cm^2 s^−1 | Diffusion Coefficient ([5]; 6 % N-n-Octadecylurea, t-butyl benzene organogel): 5.34 × 10^−6 cm^2 s^−1 | Difference of diffusion coefficient in gelated solvent from that in free (not gelated) solvent ([5]; gelated tert-butylbenzene and other solvents): 10-15% | translational diffusion coefficient [6]: 9×10^−7 cm^2 s^−1

OC(c1ccccc1)c1ccccc1 [benzhydrol]
Ksv, fluorescence quenching of p-terphenyl ([3]; in CH2Cl2): smaller than for MDT BP adduct

CC1SCCCS1 [dithiane, 2-methyl-1,3-dithiane]
Ksv, fluorescence quenching of p-terphenyl ([3]; in CH2Cl2): smaller than for MDT BP adduct
